Test results taken from patent US10131652B2, “Pyrimidinyloxy benzene derivatives as herbicides” (E. I. DU PONT DE NEMOURS AND COMPANY, priority 2014, dated 2018).

Assays:
[1] = test system: small-flower umbrella sedge (Cyperus difformis); experiment: Test G flooded paddy rice/weed plant response; format: in vivo; conditions: Flood, 21 days, scale 0 to 100 (0 no effect, 100 complete control)
Description: (§1) Three plastic pots (ca. 16-cm diameter) per rate were partially filled with sterilized Tama silt loam soil comprising a 35:50:15 ratio of sand, silt and clay and 2.6% organic matter. Separate plantings for each of the three pots were as follows. Seeds from the U.S. of monochoria (Monochoria vaginalis), small-flower umbrella sedge (Cyperus difformis), hardstem bulrush (Scirpus juncoides), and redstem (purple redstem, Ammannia coccinea), were planted into one 16-cm pot for each rate. Seeds from the U.S. of rice flatsedge (Cyperus iria), bearded sprangletop (Leptochloa fascicularis), one stand of 9 or 10 water seeded rice seedlings (Indica rice, Oryza sativa), and two stands of 3 or 4 transplanted rice seedlings (Oryza sativa cv. ‘Japonica—M202’) were planted into one 16-cm pot for each rate. Seeds from the U.S. of bamyardgrass (Echinochloa crus-galli), and late watergrass (Echinochloa oryzicola) were planted into one 16-cm pot for each rate. Plantings were sequential so that crop and weed species were at the 2.0 to 2.5-leaf stage at time of treatment.
(§2) Potted plants were grown in a greenhouse with day/night temperature settings of 30/27° C., and supplemental balanced lighting was provided to maintain a 16-hour photoperiod. Test pots were maintained in the greenhouse until test completion.
(§3) At time of treatment, test pots were flooded to 3 cm above the soil surface, treated by application of test compounds directly to the paddy water, and then maintained at that water depth for the duration of the test. Effects of treatments on rice and weeds were visually evaluated by comparison to untreated controls after 21 days. Plant response ratings, summarized in Table G, are based on a scale of 0 to 100 where 0 is no effect and 100 is complete control. A dash (-) response means no test result.

[2] = test system: bearded sprangletop (Leptochloa fascicularis); experiment: Test G flooded paddy rice/weed plant response; format: in vivo; conditions: Flood, 21 days, scale 0 to 100 (0 no effect, 100 complete control)
Description: as §1, §2, §3

[3] = test system: late watergrass (Echinochloa oryzicola); experiment: Test G flooded paddy rice/weed plant response; format: in vivo; conditions: Flood, 21 days, scale 0 to 100 (0 no effect, 100 complete control)
Description: as §1, §2, §3

[4] = test system: hardstem bulrush (Scirpus juncoides); experiment: Test G flooded paddy rice/weed plant response; format: in vivo; conditions: Flood, 21 days, scale 0 to 100 (0 no effect, 100 complete control)
Description: as §1, §2, §3

[5] = test system: transplanted rice seedlings (Oryza sativa cv. ‘Japonica—M202’); experiment: Test G flooded paddy rice/weed plant response; format: in vivo; conditions: Flood, 21 days, scale 0 to 100 (0 no effect, 100 complete control)
Description: as §1, §2, §3

[6] = test system: cocklebur (common cocklebur, Xanthium strumarium); experiment: Test F pre-/postemergence plant response; format: in vivo; conditions: scale 0 to 100
Summary of the method: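 Values are visual ratings, where 100 is complete control and 0 is no effect, given after 14 to 21 days of greenhouse growth. Test chemicals in a non-phytotoxic, surfactant-containing solvent were sprayed on soil just after planting or on emerged seedlings at the 1- to 4-leaf stage.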

Row | Compound | Plant response rating, Sedge, Umbrella ([1]; 32 g ai/ha) | Plant response rating, Sedge, Umbrella ([1]; 64 g ai/ha) | Plant response rating, Sedge, Umbrella ([1]; 125 g ai/ha) | Plant response rating, Sedge, Umbrella ([1]; 250 g ai/ha) | Plant response rating, Sprangletop, Brdd. ([2]; 32 g ai/ha) | Plant response rating, Sprangletop, Brdd. ([2]; 64 g ai/ha) | Plant response rating, Sprangletop, Brdd. ([2]; 125 g ai/ha) | Plant response rating, Sprangletop, Brdd. ([2]; 250 g ai/ha) | Plant response rating, Watergrass, Late ([3]; 32 g ai/ha) | Plant response rating, Watergrass, Late ([3]; 64 g ai/ha) | Plant response rating, Watergrass, Late ([3]; 125 g ai/ha) | Plant response rating, Watergrass, Late ([3]; 250 g ai/ha) | Plant response rating, Bulrush, Hardstem ([4]; 32 g ai/ha) | Plant response rating, Bulrush, Hardstem ([4]; 64 g ai/ha) | Plant response rating, Bulrush, Hardstem ([4]; 125 g ai/ha) | Plant response rating, Bulrush, Hardstem ([4]; 250 g ai/ha) | Plant response rating, Rice, Transplanted ([5]; 32 g ai/ha) | Plant response rating, Rice, Transplanted ([5]; 64 g ai/ha) | Plant response rating, Rice, Transplanted ([5]; 125 g ai/ha) | Plant response rating, Rice, Transplanted ([5]; 250 g ai/ha) | other results
1 | Fc1cccc(Oc2ncc(Cl)cn2)c1-c1cc(C(F)F)on1 [Compound 55, 5-chloro-2-[2-[5-(difluoromethyl)-3-isoxazolyl]-3-fluorophenoxy]pyrimidine] | 98 | 100 | 100 | 100 | 45 | 80 | 100 | 100 | 0 | 0 | 75 | 100 | 80 | 100 | 100 | 100 | 20 | 60 | 80 | 100 | –
2 | FC(F)c1cc(-c2ccccc2Oc2ncc(Cl)cn2)no1 [Compound 35, 5-chloro-2-[2-[5-(difluoromethyl)-3-isoxazolyl]phenoxy]pyrimidine] | 0 | 98 | 100 | 100 | 60 | 100 | 100 | 100 | 0 | 30 | 40 | 100 | 0 | 95 | 100 | 100 | 15 | 30 | 45 | 100 | Plant response rating, Cocklebur ([6]; 31 g ai/ha Preemergence): 0; Plant response rating, Cocklebur ([6]; 125 g ai/ha Preemergence): 0
3 | FC(F)c1cc(-c2ccccc2Oc2ncc(Br)cn2)no1 [Compound 62, 5-bromo-2-[2-[5-(difluoromethyl)-3-isoxazolyl]phenoxy]pyrimidine] | – | – | – | – | – | – | – | – | – | – | – | – | – | – | – | – | – | – | – | – | melting point: 89 to 93 °C
